From patent US5614512A, “20-Oxo-pregnacalciferol analogs with binding affinity to the progesterone receptor” (Wisconsin Alumni Research Foundation, priority 1995, dated 1997)

Key:
calcium homeostasis = conditions: in animals and humans; cited from earlier work
[1] = system: progesterone receptor (PR); conditions: U.S. Pat. No. 5,397,776; cited from earlier work
vitamin D receptor = conditions: U.S. Pat. No. 5,397,776; cited from earlier work
[2] = U.S. Pat. No. 5,397,776; cited from earlier work
progesterone receptor = target: T1, progesterone receptor (Homo sapiens, UniProt P06401); assay: Competitive binding of test compounds vs 3H-R5020 to the progesterone receptor (MCF-7 cytosol); conditions: for Total Binding (DPM) ± S.D.: 3H-R5020 (20 nM) bound; for Total Binding (DPM) ± S.D. / inhibition: competitor at 400× fold excess, 12-14 hours on ice; for binding to the PR (in words): compared with 20-oxopregnacalciferol where stated; for inhibition: of 3H-R5020 (20 nM) binding
T1 construct: The source of the progesterone receptor is the cytosolic fraction of MCF-7 cells (human breast cancer cell line); endogenous in cells; host or cells: MCF-7 cells (human breast adenocarcinoma), cytosolic fraction, 10 nM estradiol for 24 h before harvest
T1 sequence (P06401 1-933): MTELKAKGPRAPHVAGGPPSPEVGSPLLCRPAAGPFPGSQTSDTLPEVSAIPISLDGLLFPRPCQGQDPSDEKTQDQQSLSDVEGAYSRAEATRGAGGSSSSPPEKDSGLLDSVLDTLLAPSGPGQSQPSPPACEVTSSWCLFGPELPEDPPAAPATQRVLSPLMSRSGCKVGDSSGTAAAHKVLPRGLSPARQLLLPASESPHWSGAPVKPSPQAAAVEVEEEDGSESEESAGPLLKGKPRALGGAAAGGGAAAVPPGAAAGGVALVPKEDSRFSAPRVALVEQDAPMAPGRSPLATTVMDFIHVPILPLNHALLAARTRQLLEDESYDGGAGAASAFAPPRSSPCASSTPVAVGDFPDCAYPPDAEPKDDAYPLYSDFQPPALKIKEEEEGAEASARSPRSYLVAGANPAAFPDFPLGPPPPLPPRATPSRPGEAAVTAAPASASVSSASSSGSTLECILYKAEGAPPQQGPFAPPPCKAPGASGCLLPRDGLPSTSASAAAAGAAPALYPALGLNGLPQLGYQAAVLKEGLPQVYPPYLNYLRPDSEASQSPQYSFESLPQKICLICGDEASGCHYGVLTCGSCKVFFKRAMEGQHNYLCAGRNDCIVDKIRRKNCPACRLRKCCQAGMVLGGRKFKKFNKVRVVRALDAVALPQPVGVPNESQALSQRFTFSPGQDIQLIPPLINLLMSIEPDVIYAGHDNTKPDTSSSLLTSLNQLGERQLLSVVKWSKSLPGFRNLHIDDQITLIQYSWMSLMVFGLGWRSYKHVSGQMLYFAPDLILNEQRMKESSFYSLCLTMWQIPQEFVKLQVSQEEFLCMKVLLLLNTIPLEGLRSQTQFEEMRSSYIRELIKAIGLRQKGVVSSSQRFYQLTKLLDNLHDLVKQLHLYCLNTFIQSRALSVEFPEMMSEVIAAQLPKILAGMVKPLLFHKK
Experimental: Cell culture and extract preparation: Human Breast Adenocarcinoma cells (MCF-7 cells) extract is used as the progesterone receptor source. The cells were grown to confluency in phenol red-free DMEM with 10% calf serum. After replacing the medium, the cells were dosed with 10 nM Estradiol and incubated for an additional 24 hours to induce the expression of the progesterone receptor. The cells were washed with Hanks Balanced Salt Solution (HBSS: 5.0 mM KCl, 0.3 mM KH2 PO4, 138 mM NaCl, 4.0 mM NaHCO3, 0.3 mM Na2HPO4, 5.6 mM D-Glucose, 1.3 mM CaCl2 and 0.5 mM MgCl2.6H2O) and then incubated with Ca/Mg-free HBSS+1 mM EDTA for 5-10 minutes at 37° C. After harvesting, the cells were pelleted by centifugation for 5.0 minutes at 4.0° C. The cell pellet was then resuspended in TDG buffer (10 mM Tris-HCl, pH 7.4, 0.5 mM DTT and 50% Glycerol) and sonicated for 15 seconds. The cytosolic fraction was obtained by centrifugation at 50,000 RPM for 20 minutes in TLA 100.2 rotor. The supernatent (cytosol) was removed and stored on ice for use in the binding assay. The Cytosolic fraction was always prepared fresh. Binding Assay: The ability of the test compounds to compete for binding to the progesterone receptor was tested as follows: 1--The incubation mix consisted of the following: 100 μl 3H-R5020 (20 nM) 5 μl Ethanol or test compound in the ethanol providing a 400 fold excess of compound 100 μl MCF-7 Cell Extract 2--The mixture was incubated 12-14 hours on ice. 3--250 μl of 50% HAP slurry was added+3 mL of TDG buffer. 4--The samples are allowed to sit on ice for 30 minutes with vortexing every 10 minutes. 5--The HAP was pelleted by centrifugation at 1500 rpms for 3 minutes. 6--The pellet was washed three more times with TDG buffer. 7--The final pellet was resuspended in 1 ml Ethanol, vortexed and allowed to sit at room temperature for 30 minutes with vortexing every 10 minutes. 8--The samples were finally centrifuged at 2000 rpms. The supernatent was removed, mixed with counting fluid and the amount of radioactivity in each sample was determined by counting in a beta scintillation counter. 1--The source of the progesterone receptor is the cytosolic fraction of MCF-7 cells (human breast cancer cell line) which were dosed with Estradiol 24 hours prior to harvesting and processing. 2--The cytosolic fractions used in all the binding measurements were freshly prepared. No frozen extracts were used. 3--All competitive compounds were added at 400× fold excess of the labelled R5020.

progesterone = conditions: Teutsch et al, U.S. Pat. No. 4,386,085; cited from earlier work
glucocorticosteroid = conditions: Teutsch et al, U.S. Pat. No. 4,386,085; cited from earlier work
pregnancy = conditions: used in conjunction with synthetic prostaglandins; cited from earlier work

SMILES	Total Binding (DPM) ± S.D. (progesterone receptor)	binding to the PR (in words) (progesterone receptor)	inhibition (progesterone receptor)	other results
C=C1/C(=C\C=C2/CCC[C@]3(C)[C@@H]([C@H](C)/C=C/[C@H](C)C(C)(C)O)CC[C@@H]23)C[C@@H](O)C[C@@H]1O [1α,25-dihydroxyvitamin D2]	–	–	–	regulation of calcium homeostasis (in words) (calcium homeostasis): highly potent regulators of calcium homeostasis
C=C1/C(=C\C=C2/CCC[C@]3(C)[C@@H]([C@H](C)CCCC(C)(C)O)CC[C@@H]23)C[C@@H](O)C[C@@H]1O [1α,25-dihydroxyvitamin D3]	–	–	–	regulation of calcium homeostasis (in words) (calcium homeostasis): highly potent regulators of calcium homeostasis
C=C1/C(=C\C=C2/CCC[C@]3(C)[C@@H](C(C)=O)CC[C@@H]23)C[C@@H](O)C[C@@H]1O [1α-hydroxy-20-oxopregnacaliciferol]	–	–	–	binding to the PR (in words) [1]: prevents binding to the PR; binding to the vitamin D receptor (in words) (vitamin D receptor): nor did they bind to the vitamin D receptor; calcemic activity (in words) [2]: None of the above three compounds had any calcemic activity
C[C@H](CO)[C@H]1CC[C@H]2/C(=C/C=C3CCCCC3)CCC[C@]12C [4a, 19-Nor-3-desoxy-22-hydroxy-homopregnacalciferol]	4139 ± 62 DPM	did also bind to the PR	13%	–
C[C@H](CO)[C@H]1CC[C@H]2/C(=C/C=C3CCC4(CC3)OCCO4)CCC[C@]12C [4b, 19-Nor-3-desoxy-2-ethylene ketal-22-hydroxyhomopregnacalciferol]	2881 ± 152 DPM	did also bind to the PR but to a lesser degree	40%	–
C[C@H](C=O)[C@H]1CC[C@H]2/C(=C/C=C3CCCCC3)CCC[C@]12C [5a, 19-Nor-3-desoxy-homopregnacalciferol 22-aldehyde]	3045 ± 90 DPM	did also bind to the PR	36%	binding to the PR, times more than the 20-ketone 6a (progesterone receptor; compared with 20-ketone 6a): 1.5 times
C[C@H](C=O)[C@H]1CC[C@H]2/C(=C/C=C3CCC4(CC3)OCCO4)CCC[C@]12C [5b, 19-Nor-3-desoxy-2-ethylene ketal-homopregnacalciferol 22-aldehyde]	2546 ± 120 DPM	did also bind to the PR but to a lesser degree	47%	–
CC(=O)[C@H]1CC[C@H]2/C(=C/C=C3CCCCC3)CCC[C@]12C [6a, 19-Nor-3-desoxy-20-oxopregnacalciferol]	3616 ± 171 DPM	–	24%	binding to the PR, lesser degree than 20-oxopregnacalciferol (progesterone receptor; compared with previously synthesized 20-oxopregnacalciferol): 40%
CC(=O)[C@H]1CC[C@H]2/C(=C/C=C3CCC4(CC3)OCCO4)CCC[C@]12C [6b, 19-Nor-3-desoxy-2-ethylene ketal-20-oxopregna-calciferol]	2531 ± 165 DPM	did also bind to the PR but to a lesser degree	47%	–
CC(=O)[C@H]1CC[C@H]2/C(=C/C=C3CCC(=O)CC3)CCC[C@]12C [6c, 19-Nor-3-desoxy-2,20-dioxopregnacalciferol]	2036 ± 133 DPM	almost the same binding activity to the PR	58%	–
CC(=O)[C@H]1CC[C@H]2/C(=C/C=C3C[C@@H](O)C[C@H](O)C3)CCC[C@]12C [19-nor-1α-hydroxy-20-oxopregnacalciferol]	–	–	–	binding to the PR (in words) [1]: prevents binding to the PR; binding to the vitamin D receptor (in words) (vitamin D receptor): nor did they bind to the vitamin D receptor; calcemic activity (in words) [2]: None of the above three compounds had any calcemic activity
C=C1CC[C@H](O)C/C1=C/C=C1\CCC[C@]2(C)[C@@H](C(C)=O)CC[C@@H]12 [20-oxopregnacalciferol, 20-oxo-pregnacalciferol]	1950 ± 170 DPM	–	59%	binding to the PR (in words) [1]: did bind to the PR; binding to the vitamin D receptor (in words) (vitamin D receptor): nor did they bind to the vitamin D receptor; calcemic activity (in words) [2]: None of the above three compounds had any calcemic activity
CCC(=O)[C@@]1(C)CC[C@H]2[C@@H]3CCC4=CC(=O)CCC4=C3CC[C@@]21C [R5020, reference compound]	750 ± 231 DPM	–	–	–
CC#C[C@]1(O)CC[C@H]2[C@@H]3CCC4=CC(=O)CCC4=C3[C@@H](c3ccc(N(C)C)cc3)C[C@@]21C [RU 486]	–	–	–	antiprogesterone activity (in words) (progesterone): strong; antiglucocorticosteroid activity (in words) (glucocorticosteroid): strong; termination of pregnancy (in words) (pregnancy): terminates pregnancy
